Drawing on ChEMBL document CHEMBL3507680, “University of Dundee, Gates Library screen for HepG2 cell viability”, this text covers cytotoxicity for 99 molecules.

Molecules are shown by their SMILES.

This series is described as follows: Human HepG2 cell viability assay in 384 well format. The series is classed as toxicity, cell-based. Also noted: dose 125 nL, time 70.5 hour; concentration not given beside the values. The conditions noted are these: HepG2 cells, read-out: Inhibition.
Turning to `CN(Cc1cccc(C(F)(F)F)c1)Cc1nc(-c2cnccn2)no1`, the cytotoxicity at 70.5 h was -8.53%. Next, `C=C(C)COc1ccccc1CNC(CC)c1ccnn1C` (centres undefined): -5.65%; `Cc1occc1C(=O)N1CCC2(CCCN(CC3CC3)C2=O)C1` (centres undefined): -15%; `Cc1cc(N2CCC(NC(C)Cc3ccsc3)CC2)nc(N)n1` (centres undefined): 32.9%. For `O=C(NCCC1CCCCO1)c1cc(COc2cncc(Cl)c2)on1` (centres undefined) the value was 14.4%; for `CC(=O)NC(C(=O)N1CCn2cncc2C1)C(C)C` (centres undefined), -2.16%. For the molecule `Cc1nonc1CN(C)Cc1nc(-c2cccc(F)c2F)oc1C`, the cytotoxicity at 70.5 h is -7.8%.

As to `O=C(O)c1ccnc(-c2ccnc(COc3ccccc3Cl)n2)c1`, the cytotoxicity at 70.5 h is -7.03%. Next, `COc1ccc(OC)c(-n2cnnc2CN)c1`: -2.21%. Consider `CCn1nccc1S(=O)(=O)N1CCC2(CCCN(C(C)C)C2=O)C1` (centres undefined), for which the cytotoxicity at 70.5 h was -14.6%.

Consider `COc1ccc(CNC(=O)N2CCN(C)[C@@H]3CS(=O)(=O)C[C@@H]32)cc1`, for which the cytotoxicity at 70.5 h is -1.34%. Next, `CCO[C@H]1COC[C@@H]1NC(=O)c1c[nH]nc1C1CCCCC1`: 19.5%; `N#Cc1cccc(NC2CC(=O)N(Cc3cccc(F)c3)C2)n1` (centres undefined): -8.43%; `Cc1cccc(-c2nccn2-c2cccc(CC(=O)O)c2)n1`: -9.85%. Next, `CNc1nc2c(c(C(=O)N3CCCC3)n1)CN(Cc1cc(C)no1)CC2`: 10.8%; `CCC(C(=O)NC1CCCC1)n1ccc2ncccc2c1=O` (centres undefined): -16.4%; `Cc1nc(N2CCN3CCCCC3C2)nc2cc(S(C)(=O)=O)ccc12` (centres undefined): 0.525%. For the molecule `NC(=O)CN1CCC(C(=O)NCCn2cc(Cl)cn2)CC1`, the cytotoxicity at 70.5 h amounted to 3.62%. For `COCCNC(=O)c1cc(COc2cncc(Cl)c2)on1` the value was -3.27%; for `Cc1cc(C(=O)N2CCCC3(CNC(=O)O3)C2)c2c(C)nn(C)c2n1` (centres undefined), -5.33%.

In the case of `COc1nccnc1-c1cccc(-c2ccn(CC3COCCO3)n2)c1` (centres undefined), the cytotoxicity at 70.5 h is -6.47%. As for `CCn1c(N)nc2cc(C(=O)N3CCN(c4ccncc4)CC3)cnc21`, the cytotoxicity at 70.5 h was -2.2%.

Take `O=C1N(CCO)CCCC12CCN(Cc1noc(C3CCCC3)n1)C2` (centres undefined): the cytotoxicity at 70.5 h was 5.43%.

As for `O=C(Nc1ccccc1OCc1ccccn1)NC1CCOCC1`, the cytotoxicity at 70.5 h was -8.37%.

As to `CN(Cc1noc2c1CCCC2)C(=O)CN1C(=O)CSc2ccccc21`, the cytotoxicity at 70.5 h came out at 3.41%. For `COc1cccc(-c2ncc(CN3C[C@@H]4CC[C@H](C3)N(C)C4=O)s2)c1` the value was -0.692%. Next, `Cc1nccn1CCC1CCN(C(=O)C2CC3(CCNCC3)CN2)CC1` (centres undefined): -8.48%.

Regarding `CCC(=O)N1CCCC(C(=O)N2CCN(c3cnn(C)c(=O)c3)CC2)C1` (centres undefined), the cytotoxicity at 70.5 h was -12.7%. Next, `Cc1ncnc(NCCCN2CCCCC2CO)c1C` (centres undefined): -1.1%; `O=C(O)COc1ccc(CN2CCCC(CCc3ccccc3)C2)cc1` (centres undefined): 20.1%. Consider `Cn1ncnc1-c1ccnc(NCCCc2ccncc2)n1`, for which the cytotoxicity at 70.5 h is -17.5%. For `Cc1nc(O)cc(CN2CC=C(c3cnn(-c4ccccc4)c3)CC2)n1` the value was 14.1%. Next, `CC(C)OC(=O)N1C[C@H]2CC[C@@H]1CN(C(=O)c1ccccn1)C2`: 10.5%; `COc1cc(Oc2ncccc2C(F)(F)F)ccc1CN1CCCC1`: 4.5%; `CCc1cnc(N)nc1NCc1ccc(OC)cc1OC`: -0.135%.

Take `CC(C)SCC(=O)N1Cc2cnc(-c3ccccc3)nc2C1`: the cytotoxicity at 70.5 h is -7.54%. Next, `COc1cccc(C2CCCN2C(=O)CC2=CSC3=NCCCN23)c1` (centres undefined): -12%. Next, `CCC(C)N(Cc1cccnc1)C(=O)c1ncccc1O` (centres undefined): -8.41%.

For the molecule `CCCn1ncnc1C(C)NC(=O)C1CCN(C(C)C)CC1` (centres undefined), the cytotoxicity at 70.5 h was -4.07%. For `COCc1nc(N2CC[C@H](N(C)C)C2)c2cnn(C)c2n1` the value was -10%; for `Cc1nc(C(C)C)sc1C(=O)N1CCN(C2CCSCC2)CC1`, 9.03%; for `Cc1ccc(-c2ccnc(NC(C)c3ncc[nH]3)n2)c(C)n1` (centres undefined), -10.5%.

As for `COc1cccc([C@H]2CN(CCCS(=O)(=O)N(C)C)C[C@@H]2N)c1`, the cytotoxicity at 70.5 h is -3.42%. Next, `CCN1CCC(CC(=O)NCc2nc(C)cc(C)n2)CC1`: -3.98%; `O=C(COCC(F)(F)C(F)F)N1CCC2(CCCN(CCO)C2=O)C1` (centres undefined): -2.98%; `Cc1ccc(O)c(-c2cc(NCCO)nc3[nH]ccc23)c1`: -4.62%. Next, `O=C(O)c1ccnc(-c2ccnc(COc3cccc(F)c3)n2)c1`: 16.7%.

On to `Cc1nn(C)c2ncnc(N(C)CC3CCN(CC(C)C)C3)c12` (centres undefined), for which the cytotoxicity at 70.5 h was -2.77%.

On to `CC(=O)N1CCN(Cc2c(C)sc3ccccc23)CC(O)C1` (centres undefined), for which the cytotoxicity at 70.5 h is -3.67%. Turning to `COc1cccc(CC(=O)N2CCC3(CC2)OCCCC3O)c1OC` (centres undefined), the cytotoxicity at 70.5 h is -7.1%.

`Cc1cc(=O)n(CC(=O)Nc2cccc(Cl)c2)nc1C`: the cytotoxicity at 70.5 h turned out to be 21.6%. Next, `CCN(CCO)C(=O)C1CCC(=O)N(CCc2cccc(F)c2)C1` (centres undefined): -1.58%. Turning to `CCCS(=O)(=O)N1CCN(c2cc(-n3cnc(C)c3C)ncn2)CC1`, the cytotoxicity at 70.5 h turned out to be 2.79%.

In the case of `CC(COc1ccccc1)NS(C)(=O)=O` (centres undefined), the cytotoxicity at 70.5 h was -1.8%. For `CCC(NC1CCCC1)c1ccc(S(C)(=O)=O)cc1` (centres undefined) the value was -12.8%; for `O=C(COCC1CCCO1)N1CCCN(Cc2ccccc2F)CC1` (centres undefined), -5.89%; for `COc1ccc2c(C(=O)N(C)C)cc(-c3cnc(N)nc3)nc2c1`, -3.44%.

Consider `Cc1nnc(CCNC(=O)c2coc(CN3CCOCC3)c2)s1`, for which the cytotoxicity at 70.5 h stood at 1.37%. For `CCC(NS(C)(=O)=O)c1ccccc1C` (centres undefined) the value was 10.1%. Next, `CN(CC1Cc2ccccc2CN1C)c1nc(N)nc2c1CCNCC2` (centres undefined): -9.32%; `CN1CC2(CCCN(Cc3cccc(Oc4ccccc4)c3)C2)OC1=O` (centres undefined): 24.6%. Next, `O=S1(=O)CCC(n2cc(C3=CCN(CCc4ccccc4)CC3)cn2)C1` (centres undefined): -2.15%. `CCCC(=O)N1CCN(c2cc(-n3cnc(C)c3C)nc(C)n2)CC1`: the cytotoxicity at 70.5 h was -2.01%. Next, `O=C1CC(c2ccc(F)cc2)c2cnn(C3CCCC3)c2N1` (centres undefined): -7.98%; `CCOc1cccc(C2CC(=O)NCc3nc(N(C)C)sc32)c1` (centres undefined): -5.3%. For `COCC(=O)N1CCC(C(=O)Nc2ccc(C(C)=O)cc2)CC1` the value was -7.91%.

In the case of `COCCN1CC2(CCCN(c3ncnc4[nH]cnc34)C2)CCC1=O` (centres undefined), the cytotoxicity at 70.5 h was -1.89%. Next, `CCC1CCCCN1S(=O)(=O)c1c(N)noc1C` (centres undefined): -2.36%; `Cc1ccc(OCC(C)NS(C)(=O)=O)cc1` (centres undefined): -4.31%. As to `Cc1nc(N2CCN(S(C)(=O)=O)CC2)cc(-n2cnc(C)c2C)n1`, the cytotoxicity at 70.5 h was -3.21%.

As to `CN(Cc1ccc(-n2cncn2)cc1)Cc1ncc[nH]1`, the cytotoxicity at 70.5 h is -0.834%. For `CCn1c(CN(C)C)nnc1C1CCN(Cc2cccc(C#N)c2)CC1` the value was -5.02%. Next, `CCC(C(=O)NCc1cc(N2CCOCC2)ncn1)n1cccn1` (centres undefined): -1.38%; `Cn1cc(CN(Cc2cccc(-n3cccn3)c2)C2CC2)cn1`: 43.4%; `Cc1cc(C)nc(N2CCC(NCCSc3nnnn3C)CC2)n1`: 11.2%. For `Cc1ccc(C(C(=O)NCc2cc(C)[nH]n2)N(C)C)cc1` (centres undefined), the cytotoxicity at 70.5 h was -8.58%. For `CCc1ncc(C(=O)N2CCN(c3cnn(C)c(=O)c3)CC2)cn1` the value was -5.02%. On to `Cc1cnc(C)c(N2CCN(Cc3ccc(C)c(C)c3)CC2)n1`, for which the cytotoxicity at 70.5 h was found to be 3.81%. For `CCN(CC)C(=O)[C@@H]1C[C@@H](n2cc(-c3cccc(OC)c3)nn2)CN1` the value was -15.1%. Next, `Cc1ccc(-c2ncc(C(=O)N3CCCC(CCN)C3)c(O)n2)cc1` (centres undefined): -7.81%; `CC(=O)N1C[C@@H]2CC[C@H](C1)N(S(=O)(=O)c1ccc(F)cc1Cl)C2`: -6.08%. Next, `CCCNS(=O)(=O)c1ccc(C(=O)NC(CC)c2cnn(C)c2)cc1` (centres undefined): -4.79%.

As for `CCc1nn(C)c(Cl)c1CN1CCN(c2nc(C(N)=O)cs2)CC1`, the cytotoxicity at 70.5 h is -3.53%. For `CN1CCCNC(=O)C12CCN(C(=O)c1ccc3[nH]cnc3c1)CC2` the value was -3.14%. As to `Cc1cc(C)n(CC(=O)N2Cc3cnc(C(C)(C)C)nc3C2)n1`, the cytotoxicity at 70.5 h is -4.01%. For `CN(C)C[C@@H]1CN(C(=O)Cc2cccc(O)c2)C[C@@H]1CO` the value was -7.03%; for `Cc1ccsc1-c1nc(CN(C)Cc2noc(C(C)C)n2)c(C)o1`, -10.3%. For `CN1CC2(CCC1=O)CCN(CC[C@@H](O)c1ccccc1)CC2` the value was 19.6%; for `Cc1cc(CN[C@@H](C)C(N)=O)c(C)s1`, -7.91%. Next, `CC(=O)Nc1ccc(-c2cn(CCn3c(C)cc(C)nc3=O)nn2)cc1`: -6.08%; `CCc1ccccc1OC1CN(C(=O)CN(C)Cc2cccnc2)C1`: 14%.

On to `CN1C[C@@H](NC(=O)c2cc(F)cc(F)c2)C[C@H]1C(=O)NCc1ncc[nH]1`, for which the cytotoxicity at 70.5 h was -16.2%. For `COCCN1CCC2(CCC1=O)CN(C1CCOCC1)CCN2C` (centres undefined) the value was -10.7%. Next, `Cc1ccc2nc(CNCCCN3CCCC3)cc(O)c2c1`: -9.2%; `Cc1nn(CCNC(C)Cn2cncn2)c(C)c1Cl` (centres undefined): 7.1%; `Cc1ccc(CN2CCCC(c3nnc(CN4CCCC4)n3C)C2)s1` (centres undefined): -0.483%. For `Cc1ncsc1CN1C[C@H](NC(=O)C2CCOCC2)[C@@H](C(C)C)C1` the value was -14.2%. With `CCCN(Cc1nccn1C)C(=O)c1cc(C)nc(C)n1`, the cytotoxicity at 70.5 h is -9.67%. For `Cc1cccc(-c2nc(CN3CCOCS3(=O)=O)c(C)o2)c1` the value was -6.34%.
